Entries after “also recorded” stand apart in the source; their conditions may differ.

Data set [1] relates to LDLR−/− mice and A-I−/− mice. In words: Plasma clearance and tissue distribution of SEQ ID NO: 1-125I-LDL complexes. The format is in vivo, mouse. How it is done:
Plasma clearance and tissue distribution of SEQ ID NO: 1-LDL complexes—^125I-LDL (0.2 nmol) was incubated at 37° C. in PBS alone, or with 4 nmol of SEQ ID NO: 1. After 2 h, the mixture was dialyzed against PBS containing […] BHT. ^125I-LDL alone or SEQ ID NO: 1/^125I-LDL complex were injected intravenously into the tail vein of nonfasted mice under metofane anesthesia. Mice were bled at the certain time points after the injection by retroorbital bleeding into heparinized tubes. The blood was subjected to low speed centrifugation (1800 g, 4° C.) and the 10% TCA precipitable radioactivity of the plasma was measured. […] An incision was made in the […] vena cava to clear the perfusate. Within 15 min, the liver, kidneys, spleen, and heart were removed, cleaned, weighed, and counted for ^125I radioactivity. Entire organs were counted with exception of liver, which was counted in pieces. Radioactivity detected per organ or per 1 g of wet tissue was expressed as a percent of the initial total injected radioactivity that was TCA precipitable.
To determine if SEQ ID NO: 1 can associate with human LDL, we attempted to form the complex of ^125I-SEQ ID NO: 1 with isolated human LDL. […] To determine if SEQ ID NQ: 1 influences lipoprotein transport to the liver, we injected the ^125-LDL alone or in complex with SEQ ID NO: 1 into LDLR−/− mice (no LDL-receptor) and A-I−/− mice, which have a functional hepatic LDL-receptor. […] To assess the contribution of LDL-receptors alone, the binding of [^125I-LDL] and [125I-LDL-SEQ ID NO: 1] to the liver of LDLR−/− mice was subtracted from their respective binding to the liver of A-I−/− mice, and data were normalized per gram of wet tissue. […] Influence of SEQ ID NO: 1 on ^125I-LDL binding to kidney, spleen, lung, heart, testis, adrenal, and prostate is shown in FIG. 8. It is noteworthy that no increase in 125I-LDL-SEQ ID NO: 1 complex binding to the heart was observed.

In data set [2] the test system is C57BL/6J mice fed a cholate-containing high fat diet (HFC). In words: Effect of single bolus injections of peptides on plasma lipoprotein profile. In kind it is in vivo, mouse. How it is done: Effect of single bolus injections of peptides on plasma lipoprotein profile—To monitor effect of peptides on plasma cholesterol levels and its distribution among the different lipoprotein classes, the nonradioiodinated free peptides (100 μg in 100 μl of PBS) were injected intravenously into the tail vein of nonfasted C57BL/6J wild type mice, which have been placed on high fat cholate-containing diet four days prior to experiment. To control for the effect of external- and/or internal nonspecific factors (stress of handling, anesthetic, blood drawing) on plasma lipoprotein profile, a similar group of mice was injected with only PBS. Different groups of mice were sacrificed before and at various times after injections and blood was drawn by retroorbital puncture and subjected to low speed centrifugation at 4° C. to obtain the plasma. Plasma samples were obtained, combined within each group (4 mice), and subjected to gel filtration chromatography on a Superose 6 (HR 10/30 column, FPLC) to monitor cholesterol lipoproteins distribution and agarose gel electrophoresis (Paragon Systems) to monitor phospholipid lipoproteins distribution.
(§1) To monitor cholesterol distribution among the different lipoprotein classes, plasma samples were combined within each group (usually 4-6 mice per group), and subjected to FPLC size-exclusion chromatography on a Superose 6 (HR 10/30 column, Amersham-Pharmacia) using an isocratic 10 mM Tris/150 mM NaCl/1 mM EDTA buffer system at a flow rate of 0.15 ml/min. Fractions (0.15 ml) were collected into 96-well plates containing 0.055 ml of 1:1 mixture of 0.5% Triton X-100 and 20 mM Sodium Cholate. Total and free cholesterol in plasma fractions was determined by using the fluorescent method of W. Gamble, et al. (Gamble et al., 1978, Journal Lipid Res., 16: 1068-1070). 96-well plates were read on Dual-Scanning Microplate Spectrofluorometer Gemini XS (Molecular Devices). The areas under the lipoprotein peaks were quantified by using Unicorn software (Version 3.21.02). The amount of esterified cholesterol was assessed by subtraction of free cholesterol from total cholesterol.
Mice were divided into two groups—control and experimental. Each group contained 4 mice.
Effect of “frame-shift” derived peptides on lipoprotein metabolism (Single bolus injections)—We performed the functional frame-shift of the entire region of mouse apolipoprotein A1 where SEQ ID NO: 1 derived from (helix 6, Pro166-Pro188, precursor protein). Frame-shift was done in both directions (form N-to C- and from C- to N-Terminus). […] Mice were divided into two groups—control and experimental. Each group contained 4 mice. […] The data are expressed as percent of change of total cholesterol (TC) content of VLDL, IDL/LDL, and HDL classes in experimental mice relative to control (PBS injected) mice.
Effect of chemically modified derivatives of SEQ ID NO: 1 and peptides derived from other mouse apoA1 regions on mouse plasma lipoprotein profile (Single bolus injections)—To increase SEQ ID NO: 1 hydrophobicity, Phenyl Acetyl or Pivalic Acid were attached to N-Terminal Tyr residue of SEQ ID NO: 1, or Tyr residue was removed from N-terminus. […] Mice were divided into two groups—control and experimental. Each group contained 4 mice. […] The data are expressed as percent of change of total cholesterol (TC) content of VLDL, IDL/LDL, and HDL classes in experimental mice relative to control (PBS injected) mice.

For data set [3], the system named is C57BL/6J mice switched on HFC diet. In words: Effect of time-released peptides on plasma lipoprotein profile (20 hrs pumps). The format is in vivo, mouse. The settings on record: 20 hrs continuous infusion, pumps 8 ul/hr. Here is the method: Effect of time-released peptides on plasma lipoprotein profile—To determine relatively long-term effect of SEQ ID NO: 1 and its derivatives on plasma lipoprotein profile, the Alzet Mini-Osmotic pumps (220 ul), containing various peptides or PBS, were surgically inserted in canulated Chow fed C57BL/6J mice. The pumps with flow rate equal to 8 μl/hr were used for 20 hrs continuous infusion of peptides. The pumps with flow rate equal to 1 μl/hr were used for 160 hrs continuous infusions of peptides. At the end point (20 or 160 hrs after pumps insertion) mice were sacrificed, and blood was drawn by retroorbital puncture and subjected to low speed centrifugation at 4° C. to obtain the plasma. Bile was immediately removed from gall bladders using insulin syringes, and stored on ice until use.
as §1
To monitor the distribution of phospholipid among the lipoprotein classes, plasma samples were combined within each group (usually 4-6 mice per group), and subjected to agarose gel electrophoresis, which was carried out using the Paragon system (Beckman Coulter) according to manufacturer's instructions, with following staining with Paragon Lipo Stain (Beckman Coulter 655910). Once dried, the gels were scanned on Personal Densitometer SI (Molecular Dynamics) and bands were quantified using ImageQuant™ software (Verssion 5.2).
Impact of SEQ ID NO: 1 on lipoprotein metabolism (20 hrs pumps)—To determine relatively long-term effect of SEQ ID NO: 1 on plasma lipoprotein profile, the Alzet Mini-Osmotic pumps, containing SEQ ID NO: 1 or PBS, were surgically inserted in canculated Chow fed C57BL/6J mice. The pumps flow rate was equal to 8 ul per hr, which provided the delivery amount of SEQ ID NO: 1 per hr as indicated for FIG. 9. Mice were switched on HFC diet immediately after surgery. 20 hrs later plasma samples were obtained, combined within each group (4 to 6 mice), and subjected to FPLC analysis and agarose gel electrophoresis for assessment of cholesterol and phospholipid distribution among the lipoprotein classes. […] The LDL lowering effect was attenuated with increase of SEQ ID NO: 1 concentration. This phenomenon can be explained by self-competition between free and LDL-bound form of SEQ ID NO: 1 for the liver lipoprotein binding sites. In contrast, HDL cholesterol levels were positively correlated with SEQ ID NO: 1 concentration.
Impact of SEQ ID NO: 1 structural derivatives (3 to 13 amino acid residues) on lipoprotein metabolism (20 hrs pumps)—To determine relatively long-term effect on plasma lipoprotein profile, the Alzet Mini-osmotic pumps, containing SEQ ID NO: 1 derivatives or PBS, were surgically inserted in canulated Chow fed C57BL/6J mice. The pumps flow rate was equal to 8 ul per hr, which provided the deliveries of 30-40 μg of peptides per hr. Mice were switched on HFC diet immediately after surgery. […]

YEFRDRMRTH [SEQ ID NO: 1]: the in vivo half-life lay within 2 to 3 h. Moreover, the “plasma clearance of 125I-LDL-SEQ ID NO: 1 complex” value in data set [1] (ApoA1−/− mice, compared to 125I-LDL alone) is “enhanced plasma clearance”. In addition, the “liver-bound 125I-LDL after complexing with SEQ ID NO: 1” value in data set [1] (both mouse genotypes (LDLR−/− and A-I−/−), compared to 125I-LDL alone) is recorded as “significant increase”. For the same sequence, the “complex binding to the LDL-receptors (liver binding in A-I−/− minus LDLR−/− mice)” value in data set [1] (compared to 125I-LDL alone, per gram of wet tissue) is given as “substantial increase”. For the same sequence, the “125I-LDL-SEQ ID NO: 1 complex binding to the heart” value in data set [1] (mouse, in vivo) is on record as “no increase”. Moreover, the “duration of effect after single bolus injection” value in data set [2] was “up to 180 min”. Also, the “impact on plasma HDL-C levels” value in data set [2] (single bolus i.v. 100 μg) is reported as “slight but significant decrease”. Further, the “impact on VLDL level” value in data set [2] (single bolus i.v. 100 μg, entire time course) is listed as “no significant impact”. In addition, the “impact on plasma IDL/LDL, low density lipoproteins” value in data set [2] (single bolus i.v. 100 μg, 90, 120 and 180 min after injection) is “Significant lowering; also recorded: strongest impact”. In data set [3], the “plasma HDL cholesterol levels” value is given as “elevated”, the “plasma levels of HDL phospholipids” value is “elevated” and the “plasma levels of low density lipoproteins” value is listed as “dramatic decrease”.

Values taken from US20050159362A1, “Mediators of reverse cholesterol transport for the treatment of hypercholesterolemia” (priority 2003, published 2005).
